Experimental data: patent US7517532B2, “Dihydroxypyridopyrazine-1,6-dione compounds useful as HIV integrase inhibitors” (Merck & Co., Inc., priority 2002, dated 2009)

Test system: HIV
Experiment: Assay for inhibition of HIV replication (acute HIV infection of T-lymphoid cells)
Type: cell-based
Conditions: Human immunodeficiency virus 1, T-lymphoid
Protocol: Assay for Inhibition of HIV Replication
Assays for the inhibition of acute HIV infection of T-lymphoid cells were conducted in accordance with Vacca, J. P. et al., Proc. Natl. Acad. Sci. USA 1994, 91: 4096.

`CN(C)Cc1c(O)c(O)c2n(c1=O)CCN(Cc1ccc(F)cc1)C2=O` [Example 13, 2-(4-Fluorobenzyl)-8,9-dihydroxy-7-[(dimethylamino)methyl]-3,4-dihydro-2H-pyrido[1,2-a]pyrazine-1,6-dione] and `Cc1c(O)c(O)c2n(c1=O)CCN(Cc1ccc(F)cc1)C2=O` [Example 3, 2-(4-Fluorobenzyl)-8,9-dihydroxy-7-methyl-3,4-dihydro-2H-pyrido[1,2-a]pyrazine-1,6-dione] cannot be ordered by IC95: less than 5000 nM for the first, less than 5000 nM for the second.

`O=C1c2c(O)c(O)cc(=O)n2CCN1Cc1ccc(Cl)cc1` [Example 7, 2-(4-Chlorobenzyl)-8,9-dihydroxy-3,4-dihydro-2H-pyrido[1,2-a]pyrazine-1,6-dione] and `O=C1c2c(O)c(O)cc(=O)n2CCN1Cc1ccccc1` [Example 1, 2-Benzyl-8,9-dihydroxy-3,4-dihydro-2H-pyrido[1,2-a]pyrazine-1,6-dione] cannot be ordered by IC95: less than 5000 nM for the first, less than 5000 nM for the second.

`CC(=O)N1CCCCC1Cc1c(O)c(O)c2n(c1=O)CCN(Cc1ccc(F)cc1)C2=O` (stereo not drawn) [Example 35, 7-[(1-Acetylpiperidin-2-yl)methyl]-2-(4-fluorobenzyl)-8,9-dihydroxy-3,4-dihydro-2H-pyrido[1,2-a]pyrazine-1,6-dione] and `CC(=O)N1CCCC(Cc2c(O)c(O)c3n(c2=O)CCN(Cc2ccc(F)cc2)C3=O)C1` (stereo not drawn) [Example 34, 7-[(1-Acetylpiperidin-3-yl)methyl]-2-(4-fluorobenzyl)-8,9-dihydroxy-3,4-dihydro-2H-pyrido[1,2-a]pyrazine-1,6-dione] cannot be ordered by IC95: less than 1000 nM for the first, less than 1000 nM for the second.

`CC1CN(Cc2ccc(F)cc2)C(=O)c2c(O)c(O)cc(=O)n21` (stereo not drawn) [Example 16, 2-(4-Fluorobenzyl)-8,9-dihydroxy-4-methyl-3,4-dihydro-2H-pyrido[1,2-a]pyrazine-1,6-dione] and `CC1Cn2c(c(O)c(O)cc2=O)C(=O)N1Cc1ccc(F)cc1` (stereo not drawn) [Example 18, 2-(4-Fluorobenzyl)-8,9-dihydroxy-3-methyl-3,4-dihydro-2H-pyrido[1,2-a]pyrazine-1,6-dione] cannot be ordered by IC95: less than 5000 nM for the first, less than 5000 nM for the second.

`CC1(C)CN(Cc2ccc(F)cc2)C(=O)c2c(O)c(O)cc(=O)n21` [Example 17, 2-(4-Fluorobenzyl)-8,9-dihydroxy4,4dimethyl-3,4-dihydro-2H-pyrido[1,2-a]pyrazine-1,6-dione] and `O=C1c2c(O)c(O)c(I)c(=O)n2CCN1Cc1ccc(F)cc1` [Example 5, 2-(4-Fluorobenzyl)-8,9-dihydroxy-7-iodo-3,4-dihydro-2H-pyrido[1,2-a]pyrazine-1,6-dione] cannot be ordered by IC95: less than 5000 nM for the first, less than 5000 nM for the second.

`O=c1c2c(O)c(O)c(CN3CCCCC3)c(=O)n2ccn1Cc1ccc(F)cc1` [Example 25, 2-(4-Fluorobenzyl)-8,9-dihydroxy-7-(piperidin-1-ylmethyl)-2H-pyrido[1,2-a]pyrazine-1,6-dione] and `O=c1c2c(O)c(O)c(CN3CCSCC3)c(=O)n2ccn1Cc1ccc(F)cc1` [Example 29, 2-(4-Fluorobenzyl)-8,9-dihydroxy-7-[(thiomorpholin-4-yl)methyl]-2H-pyrido[1,2-a]pyrazine-1,6-dione] cannot be ordered by IC95: less than 1000 nM for the first, less than 1000 nM for the second.

`CCCOC[C@@H]1[C@@H]2[C@H]1n1c(c(O)c(O)cc1=O)C(=O)N2Cc1ccc(F)cc1` (racemic) [Example 43, (±)-1-(n-Propoxymethyl)-2-(4-fluorobenzyl)-4,5-dihydroxy-1,1a,2,8a-tetrahydrocyclo-propa[e]pyrido[1,2-a]pyrazine-3,7-dione] and `CCOC[C@@H]1[C@@H]2[C@H]1n1c(c(O)c(O)cc1=O)C(=O)N2Cc1ccc(F)cc1` (racemic) [Example 42, (±)-1-(Ethoxymethyl)-2-(4-fluorobenzyl)-4,5-dihydroxy-1,1a,2,8a-tetrahydrocyclo-propa[e]pyrido[1,2-a]pyrazine-3,7-dione] cannot be ordered by IC95: less than 1000 nM for the first, less than 1000 nM for the second.

`CSc1cc(F)ccc1Cn1ccn2c(=O)cc(O)c(O)c2c1=O` [Example 30, 2-[4-Fluoro-2-(methylthio)benzyl)-8,9-dihydroxy-2H-pyrido[1,2-a]pyrazine-1,6-dione] and `O=c1c2c(O)c(O)c(CN3CCOCC3)c(=O)n2ccn1Cc1ccc(F)cc1` [Example 28, 2-(4-Fluorobenzyl)-8,9-dihydroxy-7-[(morpholin4yl)methyl]-2H-pyrido[1,2-a]pyrazine-1,6-dione] cannot be ordered by IC95: less than 1000 nM for the first, less than 1000 nM for the second.

`CN1CCN(Cc2c(O)c(O)c3c(=O)n(Cc4ccc(F)cc4)ccn3c2=O)CC1=O` [Example 27, 2-(4-Fluorobenzyl)-8,9-dihydroxy-7-[(4-methyl-3-oxopiperazin-1-yl)methyl]-2H-pyrido[1,2-a]pyrazine-1,6-dione] and `O=C1c2c(O)c(O)c(Br)c(=O)n2CCN1Cc1ccc(F)cc1` [Example 4, 2-(4-Fluorobenzyl)-8,9-dihydroxy-7-bromo-3,4-dihydro-2H-pyrido[1,2-a]pyrazine-1,6-dione] cannot be ordered by IC95: less than 1000 nM for the first, less than 5000 nM for the second.
